Assay [1] has as its system human osteosarcoma cell line SJSA-1. The experiment in a line: Inhibition of proliferation of human osteosarcoma cell line SJSA-1 (DAPI staining, In Cell Analyzer). The following applies: Homo sapiens, SJSA-1, 72 h, read-out: IC50 (nM), inhibitory activity on proliferation of human osteosarcoma cell line SJSA-1, SJSA-1, incubated 72 h.
Assay [2] deals with T1, MDM2 (Homo sapiens, UniProt Q00987).
T1 construct: made in house
Kind of assay: Inhibition test of MDM2-P53 (GST-MDM2, Biotin-P53, Anti-GST-Tb, SA-XL665). The format is binding. A digest of the protocol:
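Compounds, serially diluted 5-fold (twelve concentrations), were shaken for 90 min at 25° C with a mix of GST-MDM2 (4 nM final), Biotin-P53, anti-GST-Tb and SA-XL665. Buffer: 1×PBS, 0.1% BSA, 5 mM DTT, 1 mM AEBSF; signal read on a microplate reader.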

T1 sequence (Q00987 whole entry): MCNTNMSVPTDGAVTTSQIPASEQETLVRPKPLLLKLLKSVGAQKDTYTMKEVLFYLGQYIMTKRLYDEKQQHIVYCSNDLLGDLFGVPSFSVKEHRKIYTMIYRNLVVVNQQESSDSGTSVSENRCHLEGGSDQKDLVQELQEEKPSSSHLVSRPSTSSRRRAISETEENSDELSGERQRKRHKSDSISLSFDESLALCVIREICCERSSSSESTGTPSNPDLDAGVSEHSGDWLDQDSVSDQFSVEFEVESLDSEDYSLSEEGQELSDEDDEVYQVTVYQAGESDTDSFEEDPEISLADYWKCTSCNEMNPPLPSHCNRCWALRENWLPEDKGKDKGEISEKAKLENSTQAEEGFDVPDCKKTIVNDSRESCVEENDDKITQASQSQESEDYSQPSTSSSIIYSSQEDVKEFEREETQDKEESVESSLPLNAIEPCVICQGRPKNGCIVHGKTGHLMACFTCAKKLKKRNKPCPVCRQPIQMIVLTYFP

As to `Cc1ccc(Cl)cc1N1C(=O)c2nc(-c3ccccc3OC(F)(F)F)n(C(C)C)c2[C@]12C(=O)Nc1cc(Cl)ccc12` [Example R-31, (R)-6-chloro-5′-(5-chloro-2-methylphenyl)-3′-isopropyl-2′-(2-(trifluoromethoxy)phenyl)-3′H-spiro[dihydroindole-3,4′-pyrrolo[3,4-d]imidazole]-2,6′(5′H)-dione], the values for the IC50 in assay [1] and in assay [2] were 3580 nM and 1.4 µM, respectively.
The corresponding values for `COc1cc(C(C)C)ccc1-c1nc2c(n1C(C)C)[C@]1(C(=O)Nc3cc(Cl)ccc31)N(c1cc(Cl)ccc1C)C2=O` [Example R-32, (R)-6-chloro-5′-(5-chloro-2-methylphenyl)-3′-isopropyl-2′-(4-isopropyl-2-methoxyphenyl)-3′H-spiro[dihydroindole-3,4′-pyrrolo[3,4-d]imidazole]-2,6′(5′H)-dione] are 8200 nM and 1.1 µM.
For `CCc1ccc(-c2nc3c(n2C(C)C)[C@]2(C(=O)Nc4cc(Cl)ccc42)N(c2cc(Cl)ccc2C)C3=O)c(OC)c1` [Example R-33, (R)-6-chloro-5′-(5-chloro-2-methylphenyl)-2′-(4-ethyl-2-methoxyphenyl)-3′-isopropyl-3′H-spiro[dihydroindole-3,4′-pyrrolo[3,4-d]imidazole]-2,6′(5′H)-dione], the IC50 is 4890 nM in assay [1] and 0.592 µM in assay [2].
For `COc1cc(-c2nc3c(n2C(C)C)[C@]2(C(=O)Nc4cc(Cl)ccc42)N(c2cc(Cl)ccc2C)C3=O)c(OC)cn1` [Example R-40, (R)-6-chloro-5′-(5-chloro-2-methylphenyl)-2′-(2,5-dimethoxypyridin-4-yl)-3′-isopropyl-3′H-spiro[dihydroindole-3,4′-pyrrolo[3,4-d]imidazole]-2,6′(5′H)-dione] the same measures were 3090 nM and 0.322 µM.
On to `COc1ncc(-c2nc3c(n2C(C)C)[C@]2(C(=O)Nc4cc(Cl)ccc42)N(c2cc(Cl)cnc2C)C3=O)c(OC)n1` [Example R-42, (R)-6-chloro-5′-(5-chloro-2-methylpyridin-3-yl)-2′-(2,4-dimethoxypyrimidin-5-yl)-3′-isopropyl-3′H-spiro[dihydroindole-3,4′-pyrrolo[3,4-d]imidazole]-2,6′(5′H)-dione], for which the IC50 worked out at 4560 nM in assay [1] and 0.364 µM in assay [2].
For `COc1ncc(-c2nc3c(n2C(C)C)[C@]2(C(=O)Nc4cc(Cl)ccc42)N(c2cc(Cl)ccc2F)C3=O)c(OC)n1` [Example R-44, (R)-6-chloro-5′-(5-chloro-2-fluorophenyl)-2′-(2,4-dimethoxypyrimidin-5-yl)-3′-isopropyl-3′H-spiro[dihydroindole-3,4′-pyrrolo[3,4-d]imidazole]-2,6′(5′H)-dione] the same measures were 1330 nM and 0.0511 µM.
The corresponding values for `COc1ncc(-c2nc3c(n2C(C)C)[C@]2(C(=O)Nc4cc(Cl)ccc42)N(c2cc(F)cc(Cl)c2)C3=O)c(OC)n1` [Example R-45, (R)-6-chloro-5′-(3-chloro-5-fluorophenyl)-2′-(2,4-dimethoxypyrimidin-5-yl)-3′-isopropyl-3′H-spiro[dihydroindole-3,4′-pyrrolo[3,4-d]imidazole]-2,6′(5′H)-dione] are 4310 nM and 0.171 µM.
For `COc1cc(CN(C)C)ccc1-c1nc2c(n1C(C)C)[C@]1(C(=O)Nc3cc(Cl)ccc31)N(c1cc(Cl)ccc1C)C2=O` [Example R-47, (R)-6-chloro-5′-(5-chloro-2-methylphenyl)-2′-(4-((dimethylamino)methyl)-2-methoxyphenyl)-3′-isopropyl-3′H-spiro[dihydroindole-3,4′-pyrrolo[3,4-d]imidazole]-2,6′(5′H)-dione] the same measures were 3850 nM and 0.21 µM.
For `COc1ncc(-c2nc3c(n2C(C)C)[C@]2(C(=O)Nc4cc(Cl)ccc42)N(c2ccc(OC)c(Cl)c2)C3=O)c(OC)n1` [Example R-48, (R)-6-chloro-5′-(3-chloro-4-methoxyphenyl)-2′-(2,4-dimethoxypyrimidin-5-yl)-3′-isopropyl-3′H-spiro[dihydroindole-3,4′-pyrrolo[3,4-d]imidazole]-2,6′(5′H)-dione], the figures for the IC50 in assay [1] and in assay [2] were 3630 nM and 0.196 µM, respectively.
The corresponding values for `COc1cc(N)ccc1-c1nc2c(n1C(C)C)[C@]1(C(=O)Nc3cc(Cl)ccc31)N(c1cc(Cl)ccc1C)C2=O` [Example R-49, (R)-2′-(4-amino-2-methoxyphenyl)-6-chloro-5′-(5-chloro-2-methylphenyl)-3′-isopropyl-3′H-spiro[dihydroindole-3,4′-pyrrolo[3,4-d]imidazole]-2,6′(5′H)-dione] are 1490 nM and 0.0714 µM.
Take `COc1ncc(-c2cc3c(n2C(C)C)[C@]2(C(=O)Nc4cc(Cl)ccc42)N(c2cc(Cl)ccc2C)C3=O)c(OC)n1` [Example R-50, (R)-6-chloro-5′-(5-chloro-2-methylphenyl)-2′-(2,4-dimethoxypyrimidin-5-yl)-1′-isopropyl-1′H-spiro[dihydroindole-3,6′-pyrrolo[3,4-b]pyrrole]-2,4′(5′H)-dione]: the IC50 worked out at 8430 nM in assay [1] and 20.4 µM in assay [2].
The corresponding values for `COc1ncc(-c2nc3c(n2C(C)C)[C@]2(C(=O)Nc4cc(Cl)ccc42)N(c2cc(C)cc(Cl)c2)C3=O)c(OC)n1` [Example R-51, (R)-6-chloro-5′-(3-chloro-5-methylphenyl)-2′-(2,4-dimethoxypyrimidin-5-yl)-3′-isopropyl-3′H-spiro[dihydroindole-3,4′-pyrrolo[3,4-d]imidazole]-2,6′(5′H)-dione] are 9520 nM and 0.547 µM.
For `COc1ccc(-c2nc3c(n2C(C)C)[C@]2(C(=O)Nc4cc(Cl)ccc42)N(c2cc(Cl)c(=O)n(C)c2)C3=O)c(OC)c1` [Example R-52, (R)-6-chloro-5′-(5-chloro-1-methyl-6-oxo-1,6-dihydropyridin-3-yl)-2′-(2,4-dimethoxyphenyl)-3′-isopropyl-3′H-spiro[dihydroindole-3,4′-pyrrolo[3,4-d]imidazole]-2,6′(5′H)-dione] the same measures were 22400 nM and 0.54 µM.
For the compound `COc1ccccc1-c1nc2c(n1C(C)C)[C@]1(C(=O)Nc3cc(Cl)ccc31)N(c1cc(Cl)c(=O)n(C)c1)C2=O` [Example R-53, (R)-6-chloro-5′-(5-chloro-1-methyl-6-oxo-1,6-dihydropyridin-3-yl)-3′-isopropyl-2′-(2-methoxyphenyl)-3′H-spiro[dihydroindole-3,4′-pyrrolo[3,4-d]imidazole]-2,6′(5′H)-dione], the IC50 in assay [1] was found to be 77400 nM; in assay [2] it was 3.77 µM.
Take `COc1ncc(-c2nc3c(n2C(C)C)[C@]2(C(=O)Nc4cc(Cl)ccc42)N(c2cccc(C)c2)C3=O)c(OC)n1` [Example R-55, (R)-6-chloro-2′-(2,4-dimethoxypyrimidin-5-yl)-3′-isopropyl-5′-(m-tolyl)-3′H-spiro[dihydroindole-3,4′-pyrrolo[3,4-d]imidazole]-2,6′(5′H)-dione]: the IC50 in assay [1] was 9940 nM; in assay [2], 0.437 µM.
The corresponding values for `COc1ncc(-c2nc3c(n2C(C)C)[C@]2(C(=O)Nc4cc(Cl)ccc42)N(c2cc(C)ccc2C)C3=O)c(OC)n1` [Example R-56, (R)-6-chloro-2′-(2,4-dimethoxypyrimidin-5-yl)-5′-(2,5-dimethylphenyl)-3′-isopropyl-3′H-spiro[dihydroindole-3,4′-pyrrolo[3,4-d]imidazole]-2,6′(5′H)-dione] are 3480 nM and 0.155 µM.
For `COc1cccc(F)c1-c1nc2c(n1C(C)C)[C@]1(C(=O)Nc3cc(Cl)ccc31)N(c1cc(Cl)ccc1C)C2=O` [Example R-57, (R)-6-chloro-5′-(5-chloro-2-methylphenyl)-2′-(2-fluoro-6-methoxyphenyl)-3′-isopropyl-3′H-spiro[dihydroindole-3,4′-pyrrolo[3,4-d]imidazole]-2,6′(5′H)-dione], the IC50 came out at 3960 nM in assay [1] and 0.427 µM in assay [2].
The corresponding values for `COc1cc(Cl)cc(N2C(=O)c3nc(-c4cnc(OC)nc4OC)n(C(C)C)c3[C@]23C(=O)Nc2cc(Cl)ccc23)c1` [Example R-58, (R)-6-chloro-5′-(3-chloro-5-methoxyphenyl)-2′-(2,4-dimethoxypyrimidin-5-yl)-3′-isopropyl-3′H-spiro[dihydroindole-3,4′-pyrrolo[3,4-d]imidazole]-2,6′(5′H)-dione] are 5890 nM and 1.43 µM.
The corresponding values for `COc1ccc(-c2nc3c(n2C(C)C)[C@]2(C(=O)Nc4cc(Cl)ccc42)N(c2cc(Cl)cnc2C)C3=O)c(OC)c1` [Example R-61, (R)-6-chloro-5′-(5-chloro-2-methylpyridin-3-yl)-2′-(2,4-dimethoxyphenyl)-3′-isopropyl-3′H-spiro[dihydroindole-3,4′-pyrrolo[3,4-d]imidazole]-2,6′(5′H)-dione] are 136 nM and 0.136 µM.
Turning to `COc1ccc(C)cc1-c1nc2c(n1C(C)C)[C@]1(C(=O)Nc3cc(Cl)ccc31)N(c1cc(Cl)ccc1C)C2=O` [Example R-62, (R)-6-chloro-5′-(5-chloro-2-methylphenyl)-3′-isopropyl-2′-(2-methoxy-5-methylphenyl)-3′H-spiro[dihydroindole-3,4′-pyrrolo[3,4-d]imidazole]-2,6′(5′H)-dione], the IC50 came to 4360 nM in assay [1] and 0.252 µM in assay [2].
The corresponding values for `COc1cc(N)ccc1-c1nc2c(n1C(C)C)[C@]1(C(=O)Nc3cc(Cl)ccc31)N(c1cc(Cl)ccc1F)C2=O` [Example R-66, (R)-2′-(4-amino-2-methoxyphenyl)-6-chloro-5′-(5-chloro-2-fluorophenyl)-3′-isopropyl-3′H-spiro[dihydroindole-3,4′-pyrrolo[3,4-d]imidazole]-2,6′(5′H)-dione] are 3860 nM and 0.0859 µM.

(Values after US11339171B2, “MDM2 inhibitors” (Gan & Lee Pharmaceuticals, priority 2017, dated 2022).)
